Assay results from patent US9493411B2 (AbbVie Inc., priority 2013, dated 2016).
Read-outs that look alike come from different tables or passages of the source.

Assays:
[1] = target: T1, BRD4 (BDI_K57-E168) (Homo sapiens, UniProt O60885); test: TR-FRET bromodomain binding assay, BRD4 first bromodomain; settings: His-tagged BD1, Alexa647-labeled probe 100 nM; Ki calculated from IC50
T1 construct: BD1: amino acids K57-E168; made in house
Summary of the method: (§1)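 Affinity for each isolated His-tagged domain was measured as competition with a fluorescent Alexa647 BET-inhibitor probe in a TR-FRET format at pH 6.0, 1 h room temperature incubation. Ki values were calculated from fitted IC50s, probe Kd and probe level (100 nM BDI, 30 nM BDII).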

[2] = system: breast cancer cell line MX-1; test: MX-1 cell line proliferation assay; type: cell-based; settings: MX-1 cells, 3-day proliferation assay, Cell Titer Glo, read-out: Cellular proliferation: EC50
Method: The impact of compounds of the Examples on cancer cell proliferation was determined using the breast cancer cell line MX-1 (ATCC) in a 3-day proliferation assay and the data are reported in Table 1. MX-1 cells were maintained in RPMI 1640 medium (Sigma) supplemented with 10% FBS at 37° C. and an atmosphere of 5% CO2. For compound testing, MX-1 cells were plated in 96-well black bottom plates at a density of 5000 cells/well in 90 μL of culture media and incubated at 37° overnight to allow cell adhesion and spreading. Compound dilution series were prepared in DMSO via a 3-fold serial dilution from 3 mM to 0.1 μM. The DMSO dilution series were then diluted 1:100 in phosphate buffered saline, and 10 μL of the resulted solution were added to the appropriate wells of the MX-1 cell plate. The final compound concentrations in the wells were 3, 1, 0.3, 0.1, 0.03, 0.01, 0.003, 0.001, 0.0003 and 0.0001 μM.
Luminescence readings from the Cell Titer Glo assay were normalized to the DMSO treated cells and analyzed using the GraphPad Prism software with sigmoidal curve fitting to obtain EC50s. The minimum significant ratio (MSR) was determined to evaluate assay reproducibility (Eastwood et al., (2006) J Biomol Screen, 11: 253-261).

[3] = target: T2, BRD4 (BDII_E352-M457) (Homo sapiens, UniProt O60885); test: TR-FRET bromodomain binding assay, BRD4 second bromodomain; settings: His-tagged BD2, Alexa647-labeled probe 30 nM; Ki calculated from IC50
T2 construct: made in house
Summary of the method: as §1

| Ki [1] [µM] | EC50 ([2]; Homo sapiens, MX1, 72 h) [µM] | Ki [3] [µM] | EC50 [2] [µM] | SMILES |
| --- | --- | --- | --- | --- |
| 0.183 | 2.85 | 2.34 |  | Cc1[nH]c(-c2ccccc2NCC2CCOC2)cc1C(N)=O (single isomer, unassigned) [Example 18] |
| 0.131 |  | 1.83 | 2.36 | Cc1[nH]c(-c2ccccc2NCC2CCOC2)cc1C(N)=O (single isomer, unassigned) [Example 19] |
| 0.935 | 3.44 | 3.9 |  | Cc1[nH]c(-c2ccccc2NCc2ccccc2)cc1C(N)=O [Example 12, 5-[2-(benzylamino)phenyl]-2-methyl-1H-pyrrole-3-carboxamide] |
| 0.774 | 3.3 | 4.54 |  | Cc1[nH]c(-c2ccccc2NCC2CCCO2)cc1C(N)=O (stereo not drawn) [Example 13, 2-methyl-5-{2-[(tetrahydrofuran-2-ylmethyl)amino]phenyl}-1H-pyrrole-3-carboxamide] |
| 0.209 | 0.465 | 0.722 |  | Cc1[nH]c(-c2ccccc2NCC2CCCC2)cc1C(N)=O [Example 14, 5-{2-[(cyclopentylmethyl)amino]phenyl}-2-methyl-1H-pyrrole-3-carboxamide] |
| 0.248 | 1.5 | 1.87 |  | Cc1[nH]c(-c2ccccc2NCC2CCOC2)cc1C(N)=O (stereo not drawn) [Example 17, 2-methyl-5-{2-[(tetrahydrofuran-3-ylmethyl)amino]phenyl}-1H-pyrrole-3-carboxamide] |
| 0.384 | 1.3 | 1.48 |  | CCCCNc1ccccc1-c1cc(C(N)=O)c(C)[nH]1 [Example 27, 5-[2-(butylamino)phenyl]-2-methyl-1H-pyrrole-3-carboxamide] |
| 0.622 | 3.8 | 1.14 |  | Cc1[nH]c(-c2ccccc2NCc2cccs2)cc1C(N)=O [Example 38, 2-methyl-5-{2-[(thiophen-2-ylmethyl)amino]phenyl}-1H-pyrrole-3-carboxamide] |
| 0.212 | > 10 | 5.58 |  | Cc1[nH]c(-c2ccccc2NCC2CCN(C(=O)OC(C)(C)C)C2)cc1C(N)=O (stereo not drawn) [Example 40, tert-butyl 3-({[2-(4-carbamoyl-5-methyl-1H-pyrrol-2-yl)phenyl]amino}methyl)pyrrolidine-1-carboxylate] |
| 0.446 | > 10 | 14.5 |  | Cc1[nH]c(-c2ccccc2NCC2CCNC2)cc1C(N)=O (stereo not drawn) [Example 42, 2-methyl-5-{2-[(pyrrolidin-3-ylmethyl)amino]phenyl}-1H-pyrrole-3-carboxamide] |
| 0.469 | > 10 | 11 |  | Cc1[nH]c(-c2ccccc2NCC2CCNCC2)cc1C(N)=O [Example 43, 2-methyl-5-{2-[(piperidin-4-ylmethyl)amino]phenyl}-1H-pyrrole-3-carboxamide] |
| 0.322 | > 10 | 1.79 |  | Cc1[nH]c(-c2ccccc2NCCC2CCN(C(=O)OC(C)(C)C)CC2)cc1C(N)=O [Example 44, tert-butyl 4-(2-{[2-(4-carbamoyl-5-methyl-1H-pyrrol-2-yl)phenyl]amino}ethyl)piperidine-1-carboxylate] |
| 0.434 | 5.44 | 9.29 |  | Cc1[nH]c(-c2ccccc2NC[C@H]2CC[C@@H](NC(=O)OC(C)(C)C)CC2)cc1C(N)=O [Example 45, tert-butyl [cis-4-({[2-(4-carbamoyl-5-methyl-1H-pyrrol-2-yl)phenyl]amino}methyl)cyclohexyl]carbamate] |
| 0.426 | 4.95 | 16.3 |  | Cc1[nH]c(-c2ccccc2NC[C@H]2CC[C@H](NC(=O)OC(C)(C)C)CC2)cc1C(N)=O [Example 46, tert-butyl [trans-4-({[2-(4-carbamoyl-5-methyl-1H-pyrrol-2-yl)phenyl]amino}methyl)cyclohexyl]carbamate] |
| 0.498 | > 10 | 7.83 |  | Cc1[nH]c(-c2ccccc2NCCC2CCNCC2)cc1C(N)=O [Example 47, 2-methyl-5-(2-{[2-(piperidin-4-yl)ethyl]amino}phenyl)-1H-pyrrole-3-carboxamide] |
| 0.224 | 9.58 | 6.22 |  | Cc1[nH]c(-c2ccccc2NC[C@H]2CC[C@@H](N)CC2)cc1C(N)=O [Example 48, 5-(2-{[(cis-4-aminocyclohexyl)methyl]amino}phenyl)-2-methyl-1H-pyrrole-3-carboxamide] |
| 0.313 | > 10 | 5.6 |  | Cc1[nH]c(-c2ccccc2NC[C@H]2CC[C@H](N)CC2)cc1C(N)=O [Example 49, 5-(2-{[(trans-4-aminocyclohexyl)methyl]amino}phenyl)-2-methyl-1H-pyrrole-3-carboxamide] |
| 0.659 | 4.17 | 3.19 |  | Cc1[nH]c(-c2ccccc2NCc2cccc(N)c2)cc1C(N)=O [Example 53, 5-{2-[(3-aminobenzyl)amino]phenyl}-2-methyl-1H-pyrrole-3-carboxamide] |
| 0.585 | 0.19 | 3.88 |  | Cc1[nH]c(-c2ccccc2NCc2ccc(O)cc2)cc1C(N)=O [Example 54, 5-{2-[(4-hydroxybenzyl)amino]phenyl}-2-methyl-1H-pyrrole-3-carboxamide] |
| 1.63 | > 10 | 2.69 |  | Cc1[nH]c(-c2ccccc2NCc2ccc3[nH]ccc3c2)cc1C(N)=O [Example 56, 5-{2-[(1H-indol-5-ylmethyl)amino]phenyl}-2-methyl-1H-pyrrole-3-carboxamide] |
| 0.392 | > 3 | 1.9 |  | Cc1[nH]c(-c2ccccc2N(Cc2ccc(OCCCN(C)C)cc2)CC2CCCC2)cc1C(N)=O [Example 57, 5-{2-[(cyclopentylmethyl){4-[3-(dimethylamino)propoxy]benzyl}amino]phenyl}-2-methyl-1H-pyrrole-3-carboxamide] |
| 0.197 | 0.52 | 1.24 |  | Cc1[nH]c(-c2ccccc2NC2CCCCC2)cc1C(N)=O [Example 62, 5-[2-(cyclohexylamino)phenyl]-2-methyl-1H-pyrrole-3-carboxamide] |
| 0.352 | 2.46 | 6.9 |  | Cc1[nH]c(-c2ccccc2NC2CCOC2)cc1C(N)=O (stereo not drawn) [Example 63, 2-methyl-5-[2-(tetrahydrofuran-3-ylamino)phenyl]-1H-pyrrole-3-carboxamide] |
| 0.452 | > 3 | 0.81 |  | Cc1[nH]c(-c2ccccc2NC2CCc3ccccc32)cc1C(N)=O (stereo not drawn) [Example 67, 5-[2-(2,3-dihydro-1H-inden-1-ylamino)phenyl]-2-methyl-1H-pyrrole-3-carboxamide] |
| 1 |  | 2.03 |  | Cc1[nH]c(-c2cccc3cc[nH]c23)cc1C(N)=O [Example 164, 5-(1H-indol-7-yl)-2-methyl-1H-pyrrole-3-carboxamide] |
| 0.595 |  | 7.49 |  | CCOC(=O)Cc1ccc(OCc2ccccc2)c(-c2cc(C(N)=O)c(C)[nH]2)c1 [Example 165, ethyl [4-(benzyloxy)-3-(4-carbamoyl-5-methyl-1H-pyrrol-2-yl)phenyl]acetate] |
| 0.63 |  | 10.5 |  | Cc1[nH]c(-c2cc(CC(=O)O)ccc2OCc2ccccc2)cc1C(N)=O [Example 166, [4-(benzyloxy)-3-(4-carbamoyl-5-methyl-1H-pyrrol-2-yl)phenyl]acetic acid] |
